# Columns and labels:
# Test in all cases: Bliss excess, mean over the matrix (fraction); higher = more synergy
# [1] = system: MS751 (Cervical Carcinoma)
# Method in brief: (§1)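 Cell lines grown in DMEM/F12 or RPMI with 10% FBS were plated in 1536-well plates and held 24 hours at 37°C, 5% CO2 before 72 hours of exposure to two-drug dose matrices, with DMSO typically at 0.2%. CellTiter-Glo 2.0 luminescence gave viability, which was converted to inhibition. Vehicle wells were set to 0 and blank wells to 1. Combination Emax is the second-highest inhibition in the matrix, and Bliss excess is the observed combination effect minus the expected EA + EB − EA·EB, where EA and EB are the single-agent effects.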
# [2] = system: K-562 (Chronic Myelogenous Leukemia)
# Method in brief: as §1
# [3] = system: SU-DHL-8 (B-Cell Non-Hodgkin's Lymphoma)
# Method in brief: as §1
# ES1 (Ewing's Sarcoma) = system: ES1 (Ewing's Sarcoma)
# Method in brief: as §1
# [4] = system: SR (Other Blood Carcinomas)
# Method in brief: as §1
# LN-18 (Glioblastoma) = system: LN-18 (Glioblastoma)
# Method in brief: as §1
# ES8 (Ewing's Sarcoma) = system: ES8 (Ewing's Sarcoma)
# Method in brief: as §1
# [5] = system: MOLT-16 (T-Lymphoblastic Leukemia)
# Method in brief: as §1
# [6] = system: DND-41 (T-Lymphoblastic Leukemia)
# Method in brief: as §1
# WIL2-NS (Non-Cancerous) = system: WIL2-NS (Non-Cancerous)
# Method in brief: as §1
# [7] = system: GR-ST (B-Lymphoblastic Leukemia)
# Method in brief: as §1
# [8] = system: SW1417 (Colorectal Carcinoma)
# Method in brief: as §1
# [9] = system: KCL-22 (Chronic Myelogenous Leukemia)
# Method in brief: as §1
# [10] = system: BL-41 (Burkitt's Lymphoma)
# Method in brief: as §1
# [11] = system: KARPAS-45 (T-Lymphoblastic Leukemia)
# Method in brief: as §1
# [12] = system: PANC-08-13 (Pancreatic Carcinoma)
# Method in brief: as §1
# [13] = system: P12-ICHIKAWA (T-Lymphoblastic Leukemia)
# Method in brief: as §1
# [14] = system: BFTC-905 (Bladder Carcinoma)
# Method in brief: as §1
# [15] = system: HL-60 (Acute Myeloid Leukemia)
# Method in brief: as §1
# NCI-H2818 (Mesothelioma) = system: NCI-H2818 (Mesothelioma)
# Method in brief: as §1
SMILES,Bliss excess [1],Bliss excess [2],Bliss excess [3],Bliss excess (ES1 (Ewing's Sarcoma)),Bliss excess [4],Bliss excess (LN-18 (Glioblastoma)),Bliss excess (ES8 (Ewing's Sarcoma)),Bliss excess [5],Bliss excess [6],Bliss excess (WIL2-NS (Non-Cancerous)),Bliss excess [7],Bliss excess [8],Bliss excess [9],Bliss excess [10],Bliss excess [11],Bliss excess [12],Bliss excess [13],Bliss excess [14],Bliss excess [15],Bliss excess (NCI-H2818 (Mesothelioma))
"C[C@@H](c1ccc2nccn2c1)n1nnc2ncc(-c3cnn(C)c3)nc21 [Savolitinib] + CC1(C)CCC(CN2CCN(c3ccc(C(=O)NS(=O)(=O)c4ccc(NCC5CCOCC5)c([N+](=O)[O-])c4)c(Oc4cnc5[nH]ccc5c4)c3)CC2)=C(c2ccc(Cl)cc2)C1 [Venetoclax] (first compound max 1 µM, 7x7, partner max 1 µM)",-0.028,-0.0187,-0.0419,-0.0515,0.0747,-0.0265,0.0191,-0.0788,-0.0082,-0.0285,-0.0073,-0.0509,-0.0352,-0.0365,-0.017,-0.0436,-0.0414,-0.0416,-0.0202,-0.0411
"NC1(C(=O)N[C@@H](CCO)c2ccc(Cl)cc2)CCN(c2ncnc3[nH]ccc23)CC1 [Capivasertib] + CC(C)n1c(=O)n(C)c2cnc3cc(F)c(-c4ccc(OCCCN5CCCCC5)nc4)cc3c21 [AZD1390] (first compound max 10 µM, 7x7, partner max 0.3 µM)",0.0033,0.0077,-0.0156,-0.111,-0.0452,-0.0325,-0.0318,-0.0658,-0.0595,-0.0379,-0.0449,-0.0394,-0.0116,-0.193,-0.0374,-0.0908,-0.018,-0.0329,-0.0656,-0.0447
"Cc1c2c(nn1C)CSCc1cc(n(C)n1)CSc1cc(c3ccccc3c1)OCCCc1c(C(=O)O)n(C)c3c-2c(Cl)ccc13 [AZD5991] + C=CCn1c(=O)c2cnc(Nc3ccc(N4CCN(C)CC4)cc3)nc2n1-c1cccc(C(C)(C)O)n1 [AZD1775] (first compound max 1 µM, partner max 1 µM)",-0.0155,0.0092,-0.01,-0.0524,-0.045,-0.0087,0.0203,0.01,-0.0375,0,-0.0402,-0.0548,-0.035,-0.0133,-0.0189,0.0156,0.0528,-0.0212,-0.0149,0.112
"C=CCn1c(=O)c2cnc(Nc3ccc(N4CCN(C)CC4)cc3)nc2n1-c1cccc(C(C)(C)O)n1 [AZD1775] + C1CN(CCC1(C(=O)N[C@@H](CCO)C2=CC=C(C=C2)Cl)N)C3=NC=NC4=C3C=CN4 [Capivasertib] (first compound max 3 µM, partner max 3 µM)",0.0003,-0.0516,0.0097,-0.0219,0.0013,0.0196,0.0352,0.0568,-0.0428,-0.0675,-0.0771,-0.0368,0.035,0.0156,-0.0046,-0.0493,0.0076,-0.0499,0.0265,-0.0493
"Cc1c2c(nn1C)CSCc1cc(n(C)n1)CSc1cc(c3ccccc3c1)OCCCc1c(C(=O)O)n(C)c3c-2c(Cl)ccc13 [AZD5991] + CCN(CCO)CCCOc1ccc2c(Nc3cc(CC(=O)Nc4cccc(F)c4)[nH]n3)ncnc2c1 [AZD2811] (first compound max 1 µM, 7x7, partner max 1 µM)",0.0367,0.086,0.0416,0.0915,0.178,-0.029,0.012,-0.0114,0.0265,0.0821,-0.0742,-0.0139,0.0736,-0.0295,-0.0409,0.0135,-0.0164,0.11,-0.0001,-0.0116
"CC(=O)c1c(C)c2cnc(Nc3ccc(N4CCNCC4)cn3)nc2n(C2CCCC2)c1=O [Palbociclib] + Cn1cnc2c(F)c(Nc3ccc(Br)cc3Cl)c(C(=O)NOCCO)cc21 [Selumetinib] (first compound max 10 µM, 7x7, partner max 10 µM)",-0.0445,0.0221,0.0147,-0.0366,0.0352,0.0293,0.041,-0.0133,0.0601,-0.0133,0.0333,-0.0094,-0.0021,-0.0131,0.0636,-0.0053,0.138,0.0595,0.0109,-0.0013
"CN(CCO)CC[C@H](CSc1ccccc1)Nc1ccc(S(=O)(=O)NC(=O)c2ccc(N3CCC([C@@H](O)c4ccccc4-c4ccc(Cl)cc4)CC3)cc2)cc1S(=O)(=O)C(F)(F)F [AZD4320] + CCN(CCO)CCCOc1ccc2c(Nc3cc(CC(=O)Nc4cccc(F)c4)[nH]n3)ncnc2c1 [AZD2811] (first compound max 1 µM, 7x7, partner max 1 µM)",0.0064,0.0055,-0.013,0.142,0.0343,-0.0187,0.0276,-0.0049,0.0382,0.0006,-0.0272,-0.0306,0.0572,-0.0172,-0.0137,-0.0166,0.0103,0.121,-0.0281,-0.0555
"COc1nnc2ccc(N3CCC(c4ccc(OCCN5CCN(C)C(=O)[C@H]5C)cc4)CC3)nn12 [AZD5153] + Cn1cnc2c(F)c(Nc3ccc(Br)cc3Cl)c(C(=O)NOCCO)cc21 [Selumetinib] (first compound max 1 µM, 7x7, partner max 10 µM)",0.0385,-0.001,0.0473,-0.0511,-0.0614,0.0152,0.0303,-0.0353,0.0425,0.0265,-0.0578,0.0496,0.0841,-0.0526,0.0362,0.0924,0.0746,0.0113,0.0707,-0.0031
"CC(=O)c1c(C)c2cnc(Nc3ccc(N4CCNCC4)cn3)nc2n(C2CCCC2)c1=O [Palbociclib] + CC1(C)CCC(CN2CCN(c3ccc(C(=O)NS(=O)(=O)c4ccc(NCC5CCOCC5)c([N+](=O)[O-])c4)c(Oc4cnc5[nH]ccc5c4)c3)CC2)=C(c2ccc(Cl)cc2)C1 [Venetoclax] (first compound max 10 µM, 7x7, partner max 1 µM)",-0.0251,-0.0313,-0.0096,-0.0214,-0.0245,0.0187,0.0365,0.0452,-0.0292,0.0278,0.0074,-0.0267,0.0057,-0.0842,0.0598,-0.0361,-0.0157,-0.046,-0.0215,-0.0146
"COc1cccc(OCCCN)c1-c1cc(Nc2cnc(C#N)cn2)n[nH]1 [Prexasertib] + CCc1c2c(nc3ccc(O)cc13)-c1cc3c(c(=O)n1C2)COC(=O)[C@]3(O)CC [SN-38] (first compound max 1 µM, 7x7, partner max 0.3 µM)",0.0628,0.0726,-0.0171,0.0085,-0.0378,0.07,-0.0301,0.0103,-0.103,-0.0234,-0.106,0.0029,0.0175,-0.0231,0.0731,0.0182,-0.0253,-0.0004,-0.0203,-0.0745
"Cc1nc(Nc2ncc(C(=O)Nc3c(C)cccc3Cl)s2)cc(N2CCN(CCO)CC2)n1 [Dasatinib] + CC(=O)Nc1cccc(-n2c(=O)n(C3CC3)c(=O)c3c(Nc4ccc(I)cc4F)n(C)c(=O)c(C)c32)c1 [Trametinib] (first compound max 2 µM, 7x7, partner max 1 µM)",-0.0099,-0.0956,-0.0242,-0.0643,-0.0069,-0.0433,0.0243,-0.0184,-0.0333,0.133,0.0189,0.131,-0.0501,0.0075,0.0017,0.143,0.0326,0.0926,-0.159,-0.0109
"C[C@@H](c1ccc2nccn2c1)n1nnc2ncc(-c3cnn(C)c3)nc21 [Savolitinib] + Cc1c2c(nn1C)CSCc1cc(n(C)n1)CSc1cc(c3ccccc3c1)OCCCc1c(C(=O)O)n(C)c3c-2c(Cl)ccc13 [AZD5991] (first compound max 1 µM, 7x7, partner max 1 µM)",-0.0701,0.0145,-0.0425,-0.0152,0.0023,0.005,0.0495,-0.0289,-0.0188,-0.0262,-0.037,-0.0228,-0.0134,-0.0318,-0.0264,-0.0452,0.02,-0.0523,-0.0266,-0.0343
"CC1(C)CCC(CN2CCN(c3ccc(C(=O)NS(=O)(=O)c4ccc(NCC5CCOCC5)c([N+](=O)[O-])c4)c(Oc4cnc5[nH]ccc5c4)c3)CC2)=C(c2ccc(Cl)cc2)C1 [Venetoclax] + CN(C)CCCOc1ccc(-c2ccc3ncc4c(c3c2)n(C2CCOCC2)c(=O)n4C)cn1 [AZD0156] (first compound max 1 µM, 7x7, partner max 1 µM)",0.0165,-0.0005,-0.0201,0.0421,-0.0266,-0.0488,0.0212,0.0462,0.0278,-0.0296,-0.0363,-0.0332,0.0042,0.0008,-0.0096,0.0037,0.0509,0.0232,0.0448,-0.0501
"CC1(C)CCC(CN2CCN(c3ccc(C(=O)NS(=O)(=O)c4ccc(NCC5CCOCC5)c([N+](=O)[O-])c4)c(Oc4cnc5[nH]ccc5c4)c3)CC2)=C(c2ccc(Cl)cc2)C1 [Venetoclax] + COc1cc(Nc2ncc3c(n2)-c2ccc(Cl)cc2C(c2c(F)cccc2OC)=NC3)ccc1C(=O)O [Alisertib] (first compound max 1 µM, 7x7, partner max 10 µM)",0.0342,0.0498,-0.0869,0.0385,0.013,0.0481,-0.104,0.0623,0.116,-0.0522,0.0444,-0.0705,0.163,-0.0436,0.0544,-0.032,-0.0398,-0.0387,0.0894,-0.0547

# — the supplement of paper PMC11061612
